Source: ChEMBL document CHEMBL4334508, “Oleanolic Acid Derivatives as Potential Inhibitors of HIV-1 Protease” (J Nat Prod, 2019)

Target: Protease (Human immunodeficiency virus 1, UniProt Q9YQ12)
Assay: Inhibition of HIV1 protease expressed in Escherichia coli using Abz-Ala-Arg-Val-Nle-Tyr(NO2)-Glu-Ala-Nle-NH2 peptide as substrate by FRET assay

Protease, sequence (Q9YQ12 whole entry): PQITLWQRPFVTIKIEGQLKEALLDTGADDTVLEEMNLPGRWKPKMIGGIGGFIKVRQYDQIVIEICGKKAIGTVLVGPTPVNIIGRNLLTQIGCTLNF

Structure (SMILES) | IC50 [µM]
CC1(C)CC[C@]2(C(=O)NCCCCCC(=O)O)CC[C@]3(C)C(=CC[C@@H]4[C@@]5(C)CC[C@H](OC(=O)c6ccccc6)C(C)(C)[C@@H]5CC[C@]43C)[C@@H]2C1 | > 50
CCCCCCCCCCCC(=O)O[C@H]1CC[C@]2(C)[C@H]3CC=C4[C@@H]5CC(C)(C)CC[C@]5(C(=O)NCCCCCC(=O)N[C@H](C(=O)O)C(C)C)CC[C@@]4(C)[C@]3(C)CC[C@H]2C1(C)C | > 50
CCCCCCCCCCCC(=O)O[C@H]1CC[C@]2(C)[C@H]3CC=C4[C@@H]5CC(C)(C)CC[C@]5(C(=O)NCCCCCC(=O)N[C@@H](C)C(=O)O)CC[C@@]4(C)[C@]3(C)CC[C@H]2C1(C)C | > 50
C[C@H](NC(=O)CCCCCNC(=O)[C@]12CCC(C)(C)C[C@H]1C1=CC[C@@H]3[C@@]4(C)CC[C@H](OC(=O)CC(C)(C)CC(=O)O)C(C)(C)[C@@H]4CC[C@@]3(C)[C@]1(C)CC2)C(=O)O | 24.1
CCCC(=O)O[C@H]1CC[C@]2(C)[C@H]3CC=C4[C@@H]5CC(C)(C)CC[C@]5(C(=O)NCCCCCCCCCCC(=O)N[C@H](C(=O)O)C(C)C)CC[C@@]4(C)[C@]3(C)CC[C@H]2C1(C)C | > 50
CC1(C)CC[C@]2(C(=O)NCCCCCC(=O)NCC(=O)O)CC[C@]3(C)C(=CC[C@@H]4[C@@]5(C)CC[C@H](OC(=O)c6ccccc6C(=O)O)C(C)(C)[C@@H]5CC[C@]43C)[C@@H]2C1 | 3.1
CC(=O)O[C@H]1CC[C@]2(C)[C@H]3CC=C4[C@@H]5CC(C)(C)CC[C@]5(C(=O)NCCCC(=O)NCC(=O)O)CC[C@@]4(C)[C@]3(C)CC[C@H]2C1(C)C | > 50
CCCCCCCCCCCC(=O)O[C@H]1CC[C@]2(C)[C@H]3CC=C4[C@@H]5CC(C)(C)CC[C@]5(C(=O)NCCCC(=O)O)CC[C@@]4(C)[C@]3(C)CC[C@H]2C1(C)C | > 50
C[C@H](NC(=O)CCCNC(=O)[C@]12CCC(C)(C)C[C@H]1C1=CC[C@@H]3[C@@]4(C)CC[C@H](OC(=O)CCC(=O)O)C(C)(C)[C@@H]4CC[C@@]3(C)[C@]1(C)CC2)C(=O)O | > 50
CC(=O)N[C@H](C(=O)N[C@H](C(=O)N[C@@H](CC(C)C)[C@@H](O)CC(=O)N[C@@H](C)C(=O)N[C@@H](CC(C)C)[C@@H](O)CC(=O)O)C(C)C)C(C)C [ACETYLPEPSTATIN] | 0.24
C[C@H](NC(=O)CCCNC(=O)[C@]12CCC(C)(C)C[C@H]1C1=CC[C@@H]3[C@@]4(C)CC[C@H](OC(=O)CC(C)(C)CC(=O)O)C(C)(C)[C@@H]4CC[C@@]3(C)[C@]1(C)CC2)C(=O)O | > 50
CCCCCC(=O)O[C@H]1CC[C@]2(C)[C@H]3CC=C4[C@@H]5CC(C)(C)CC[C@]5(C(=O)NCCCCCCCCCCC(=O)O)CC[C@@]4(C)[C@]3(C)CC[C@H]2C1(C)C | > 50
CC(C)(CC(=O)O)CC(=O)O[C@H]1CC[C@]2(C)[C@H]3CC=C4[C@@H]5CC(C)(C)CC[C@]5(C(=O)NCCCCCCCCCCC(=O)O)CC[C@@]4(C)[C@]3(C)CC[C@H]2C1(C)C | > 50
CCC(=O)O[C@H]1CC[C@]2(C)[C@H]3CC=C4[C@@H]5CC(C)(C)CC[C@]5(C(=O)NCCCCCC(=O)N[C@H](C(=O)O)C(C)C)CC[C@@]4(C)[C@]3(C)CC[C@H]2C1(C)C | > 50
CC(=O)O[C@H]1CC[C@]2(C)[C@H]3CC=C4[C@@H]5CC(C)(C)CC[C@]5(C(=O)NCCCCCC(=O)N[C@@H](C)C(=O)O)CC[C@@]4(C)[C@]3(C)CC[C@H]2C1(C)C | 47.1
CC(C)(CC(=O)O)CC(=O)O[C@H]1CC[C@]2(C)[C@H]3CC=C4[C@@H]5CC(C)(C)CC[C@]5(C(=O)NCCCCCCCCCCC(=O)NCC(=O)O)CC[C@@]4(C)[C@]3(C)CC[C@H]2C1(C)C | > 50
CCCCCCCCCCCC(=O)O[C@H]1CC[C@]2(C)[C@H]3CC=C4[C@@H]5CC(C)(C)CC[C@]5(C(=O)NCCCC(=O)N[C@H](C(=O)O)C(C)C)CC[C@@]4(C)[C@]3(C)CC[C@H]2C1(C)C | > 50
C[C@H](NC(=O)CCCCCCCCCCNC(=O)[C@]12CCC(C)(C)C[C@H]1C1=CC[C@@H]3[C@@]4(C)CC[C@H](OC(=O)c5ccccc5)C(C)(C)[C@@H]4CC[C@@]3(C)[C@]1(C)CC2)C(=O)O | > 50
CC(C)[C@H](NC(=O)CCCCCCCCCCNC(=O)[C@]12CCC(C)(C)C[C@H]1C1=CC[C@@H]3[C@@]4(C)CC[C@H](OC(=O)c5ccccc5)C(C)(C)[C@@H]4CC[C@@]3(C)[C@]1(C)CC2)C(=O)O | > 50
CCCC(=O)O[C@H]1CC[C@]2(C)[C@H]3CC=C4[C@@H]5CC(C)(C)CC[C@]5(C(=O)NCCCCCCCCCCC(=O)O)CC[C@@]4(C)[C@]3(C)CC[C@H]2C1(C)C | > 50
CC(C)[C@H](NC(=O)CCCCCCCCCCNC(=O)[C@]12CCC(C)(C)C[C@H]1C1=CC[C@@H]3[C@@]4(C)CC[C@H](OC(=O)CCC(=O)O)C(C)(C)[C@@H]4CC[C@@]3(C)[C@]1(C)CC2)C(=O)O | > 50
CC1(C)CC[C@]2(C(=O)NCCCC(=O)NCC(=O)O)CC[C@]3(C)C(=CC[C@@H]4[C@@]5(C)CC[C@H](OC(=O)c6ccccc6)C(C)(C)[C@@H]5CC[C@]43C)[C@@H]2C1 | > 50
CC1(C)CC[C@]2(C(=O)NCCCCCC(=O)NCC(=O)O)CC[C@]3(C)C(=CC[C@@H]4[C@@]5(C)CC[C@H](OC(=O)CCC(=O)O)C(C)(C)[C@@H]5CC[C@]43C)[C@@H]2C1 | > 50

Structure (SMILES) | IC50 [µM]
CCC(=O)O[C@H]1CC[C@]2(C)[C@H]3CC=C4[C@@H]5CC(C)(C)CC[C@]5(C(=O)NCCCCCCCCCCC(=O)O)CC[C@@]4(C)[C@]3(C)CC[C@H]2C1(C)C | > 50
CCCCCC(=O)O[C@H]1CC[C@]2(C)[C@H]3CC=C4[C@@H]5CC(C)(C)CC[C@]5(C(=O)NCCCC(=O)NCC(=O)O)CC[C@@]4(C)[C@]3(C)CC[C@H]2C1(C)C | > 50
CC1(C)CC[C@]2(C(=O)NCCCCCCCCCCC(=O)NCC(=O)O)CC[C@]3(C)C(=CC[C@@H]4[C@@]5(C)CC[C@H](OC(=O)CCCC(=O)O)C(C)(C)[C@@H]5CC[C@]43C)[C@@H]2C1 | > 50
CCCC(=O)O[C@H]1CC[C@]2(C)[C@H]3CC=C4[C@@H]5CC(C)(C)CC[C@]5(C(=O)NCCCC(=O)N[C@H](C(=O)O)C(C)C)CC[C@@]4(C)[C@]3(C)CC[C@H]2C1(C)C | > 50
CCCCCC(=O)O[C@H]1CC[C@]2(C)[C@H]3CC=C4[C@@H]5CC(C)(C)CC[C@]5(C(=O)NCCCCCC(=O)N[C@@H](C)C(=O)O)CC[C@@]4(C)[C@]3(C)CC[C@H]2C1(C)C | > 50
CC1(C)CC[C@]2(C(=O)NCCCC(=O)O)CC[C@]3(C)C(=CC[C@@H]4[C@@]5(C)CC[C@H](OC(=O)c6ccccc6)C(C)(C)[C@@H]5CC[C@]43C)[C@@H]2C1 | > 50
CC(C)[C@H](NC(=O)CCCCCNC(=O)[C@]12CCC(C)(C)C[C@H]1C1=CC[C@@H]3[C@@]4(C)CC[C@H](OC(=O)c5ccccc5)C(C)(C)[C@@H]4CC[C@@]3(C)[C@]1(C)CC2)C(=O)O | > 50
CC(C)[C@H](NC(=O)CCCCCCCCCCNC(=O)[C@]12CCC(C)(C)C[C@H]1C1=CC[C@@H]3[C@@]4(C)CC[C@H](OC(=O)CC(C)(C)CC(=O)O)C(C)(C)[C@@H]4CC[C@@]3(C)[C@]1(C)CC2)C(=O)O | > 50
CCC(=O)O[C@H]1CC[C@]2(C)[C@H]3CC=C4[C@@H]5CC(C)(C)CC[C@]5(C(=O)NCCCC(=O)O)CC[C@@]4(C)[C@]3(C)CC[C@H]2C1(C)C | > 50
CC(C)(CC(=O)O)CC(=O)O[C@H]1CC[C@]2(C)[C@H]3CC=C4[C@@H]5CC(C)(C)CC[C@]5(C(=O)NCCCCCC(=O)NCC(=O)O)CC[C@@]4(C)[C@]3(C)CC[C@H]2C1(C)C | 38.8
C[C@H](NC(=O)CCCCCCCCCCNC(=O)[C@]12CCC(C)(C)C[C@H]1C1=CC[C@@H]3[C@@]4(C)CC[C@H](OC(=O)c5ccccc5C(=O)O)C(C)(C)[C@@H]4CC[C@@]3(C)[C@]1(C)CC2)C(=O)O | 1
CC(C)[C@H](NC(=O)CCCNC(=O)[C@]12CCC(C)(C)C[C@H]1C1=CC[C@@H]3[C@@]4(C)CC[C@H](OC(=O)CCCC(=O)O)C(C)(C)[C@@H]4CC[C@@]3(C)[C@]1(C)CC2)C(=O)O | 19.8
CC1(C)CC[C@]2(C(=O)NCCCCCCCCCCC(=O)NCC(=O)O)CC[C@]3(C)C(=CC[C@@H]4[C@@]5(C)CC[C@H](OC(=O)c6ccccc6C(=O)O)C(C)(C)[C@@H]5CC[C@]43C)[C@@H]2C1 | 2.3
CC(=O)O[C@H]1CC[C@]2(C)[C@H]3CC=C4[C@@H]5CC(C)(C)CC[C@]5(C(=O)NCCCCCC(=O)NCC(=O)O)CC[C@@]4(C)[C@]3(C)CC[C@H]2C1(C)C | > 50
CCCCCCCCCCCC(=O)O[C@H]1CC[C@]2(C)[C@H]3CC=C4[C@@H]5CC(C)(C)CC[C@]5(C(=O)NCCCCCC(=O)O)CC[C@@]4(C)[C@]3(C)CC[C@H]2C1(C)C | > 50
CC1(C)CC[C@]2(C(=O)NCCCCCCCCCCC(=O)O)CC[C@]3(C)C(=CC[C@@H]4[C@@]5(C)CC[C@H](OC(=O)CCC(=O)O)C(C)(C)[C@@H]5CC[C@]43C)[C@@H]2C1 | > 50
CC(C)[C@H](NC(=O)CCCCCNC(=O)[C@]12CCC(C)(C)C[C@H]1C1=CC[C@@H]3[C@@]4(C)CC[C@H](OC(=O)CCC(=O)O)C(C)(C)[C@@H]4CC[C@@]3(C)[C@]1(C)CC2)C(=O)O | 9.6
C[C@H](NC(=O)CCCCCCCCCCNC(=O)[C@]12CCC(C)(C)C[C@H]1C1=CC[C@@H]3[C@@]4(C)CC[C@H](OC(=O)CCC(=O)O)C(C)(C)[C@@H]4CC[C@@]3(C)[C@]1(C)CC2)C(=O)O | > 50
CC1(C)CC[C@]2(C(=O)NCCCC(=O)O)CC[C@]3(C)C(=CC[C@@H]4[C@@]5(C)CC[C@H](OC(=O)CCCC(=O)O)C(C)(C)[C@@H]5CC[C@]43C)[C@@H]2C1 | 20.4
CCCCCCCCCCCC(=O)O[C@H]1CC[C@]2(C)[C@H]3CC=C4[C@@H]5CC(C)(C)CC[C@]5(C(=O)NCCCCCCCCCCC(=O)NCC(=O)O)CC[C@@]4(C)[C@]3(C)CC[C@H]2C1(C)C | > 50
CC(=O)O[C@H]1CC[C@]2(C)[C@H]3CC=C4[C@@H]5CC(C)(C)CC[C@]5(C(=O)NCCCCCC(=O)N[C@H](C(=O)O)C(C)C)CC[C@@]4(C)[C@]3(C)CC[C@H]2C1(C)C | 30.3
C[C@H](NC(=O)CCCNC(=O)[C@]12CCC(C)(C)C[C@H]1C1=CC[C@@H]3[C@@]4(C)CC[C@H](OC(=O)c5ccccc5)C(C)(C)[C@@H]4CC[C@@]3(C)[C@]1(C)CC2)C(=O)O | 47.1
